The text below walks through data of patent US20230083730A1, “Composition with Anti-Aging Properties and the Selection Method thereof” (Hemix Biotech Limited, priority 2021, published 2023).

Assay [1] relates to human bone marrow mesenchymal stem cells (MSCs). Kind of assay: human bone marrow mesenchymal stem cell viability assay (MTS). It counts as cell-based. The note with it: 2 days treatment; FIG. 4. Here is the method: Firstly, cells were cultured in 96-well plate and CellTiter 96® AQueous One Solution Cell Proliferation Assay (MTS) was used to carry out the cell viability assay. For human mesenchymal stem cells (MSCs), they were seeded and cultured in 96-well plate and treated with control, resveratrol, spermidine or combined treatment for 2 days. Human bone marrow mesenchymal stem cells (MSCs) were treated with four batches of chemical having different ingredients and concentrations of spermidine and resveratrol for two days under identical experimental conditions. The ingredients and concentrations of spermidine and resveratrol of the four different chemicals are: control blank, spermidine alone, resveratrol alone, and a combined use of spermidine and resveratrol.

Assay [2] deals with Caenorhabditis elegans. The note with it: prior art literature; cited from earlier work.
For assay [3], the system named is Caenorhabditis elegans. The assay is described as follows: Caenorhabditis elegans lifespan analysis. It counts as in vivo. The note with it: 200 μM spermidine alone, 10 μM resveratrol alone, or both combined; FIG. 1a. Here is the method: According to an embodiment of the present invention, i.e., a method for selecting a composition having anti-aging properties, step 1 of the method is to confirm the life-span enhancing effect of the composition by using Caenorhabditis elegans lifespan analysis. For chemical treatment in Caenorhabditis elegans, four batches of chemical with different ingredients and content were added to the nematode growth medium (NGM) dishes. The NGM with agarose was autoclaved and then cooled down to below 65° C. The NGM was then poured into 60 mm dishes and incubated at room temperature overnight. The solidified NGM dishes were stored at 4° C. Escherichia coli OP50 strain was used as the food source for C. elegans. A single colony of OP50 was incubated in 200 mL of lysogeny broth (LB) medium at 37° C. overnight. The OP50 was then killed by incubation at 65° C. for 30 minutes. The dead OP50 was spread throughout the surface of the NGM dishes. The NGM dishes with dead OP50 were stored at 4° C. for up to 2 weeks. The synchronization of C. elegans was carried out by the bleaching method. 20 L4 larvae were picked to each 60 mm dish with different chemical treatment and cultured at 20° C. They were monitored every day, and the number of living, dead and missing C. elegans were recorded. […]

Regarding `Oc1ccc(C=Cc2cc(O)cc(O)c2)cc1` [resveratrol, 3,5,4′-trihydroxystilbene], the “cell viability of human bone marrow MSCs” value in assay [1] was “can enhance cell viability”. Further, the “effective concentration to extend the lifespan of Caenorhabditis elegans” value in assay [2] was 100 µM. Moreover, the “life span of Caenorhabditis elegans” value in assay [3] is on record as “higher than that of the control blank”.
As to `NCCCCNCCCN` [spermidine], the “cell viability of human bone marrow MSCs” value in assay [1] is listed as “can enhance cell viability”. Further, the “effective concentration to extend the lifespan of Caenorhabditis elegans” value in assay [2] is 200 µM. Besides, in assay [3], the “life span of Caenorhabditis elegans” value is listed as “higher than that of the control blank”.
